Experimental data reported in patent US5610185A, “Method for the treatment of hyperproliferative epithelial skin diseases by topical application of hydroxylated aromatic protein cross-linking compounds” (The United States of America as represented by the …, priority 1995, dated 1997).

Columns and labels:
308 and SQCC-Y1 cells = assay: Cross-linked protein envelopes by tyrosine kinase inhibitors (Table II); format: cell-based; conditions: concentrations within the range for inhibition of tyrosine kinases
Procedure: (§1) The assay measures insoluble cross-linked protein envelopes as described (Hough-Monroe et al. Analytical biochem., 199, 25-28, 1991), with modifications as follows. Cornified envelopes were prepared by scraping monolayers into 2% sodium dodecylsulphate (SDS), 20 mM dithiothreitol (DTT) in phosphate buffered saline (PBS). Unattached cells were pelleted from medium and were resuspended in SDS/DTT and pooled with attached cells. Samples were boiled for 10 mins. Cornified envelope samples were examined under the microscope using phase contrast optics or were applied to an RC60 membrane (Schleicher and Schuell, Keene, N.H.) on a 96-well dot-blot apparatus attached to a vacuum. Samples were washed three times with SDS/DTT and the resultant protein spots on RC60 membrane were fixed and stained as described. Sports were excised and eluted with 1% NH3 OH concentrated solution, 66% methanol (200 ul) overnight. Absorbance of eluate was measured on a Titertek plate reader at 600 nm.
A range of tyrosine kinase inhibitors was tested for ability to produce cross-linked protein envelopes in 308 and SQCC-Y1 cells. All inhibitors were obtained commercially from LC Laboratories, Woburn, Mass. Concentrations used were within the range for inhibition of tyrosine kinases.

[1] = tested on: SQCC-Y1 human squamous carcinoma cells; assay: Cornified envelope (cross-linked protein) assay, SQCC-Y1 cells; format: cell-based; conditions: for cross-linked protein production by MC derivatives: SQCC-Y1 cells, FIG. 11, preliminary; for potency in cross-linking: of 15 aromatic compounds, FIG. 12
[2] = tested on: primary mouse keratinocytes; assay: Cornified envelope (cross-linked protein) assay, primary mouse keratinocytes; format: cell-based; conditions: 4° C. and 37° C., 48 hours
Procedure: FIGS. 3A and 3B. A: Time course for cornification of primary mouse keratinocytes in response to MC. Boxes represent […] Ca^2+, triangles represent 100 μM MC, 1.4 mM Ca^2+, and solid circles represent 1 mM MC, 1.4 mM Ca^2+. […] Cells were incubated in medium with 1.4 mM Ca^2+ and MC for 4 hours, then were incubated with MTT (0.5 mg/ml in medium) for a further 4 hours before determination of formazan production.
Primary mouse keratinocytes were isolated from BALB/c newborn mouse skin. Primary keratinocytes, the benign neoplastic keratinocyte cell lines 308 and SP-1 (Strickland et al, Cancer Res., 48, 165-169, 1988) and the mouse squamous cell carcinoma line 1-7 (Greenhalgh et al., Proc. Natl. Acad. Sci., 87, 643-647, 1990) were grown in Eagle's minimal essential medium with 8% fetal calf serum (FCS) (chelexed) and penicillin 20 iu/ml, streptomycin 20 ug/ml (P/S). Unless otherwise indicated, the Ca^2+ concentration in medium was adjusted to 0.05 mM (Hennings et al., Cells, 19, 245-254, 1980). A431 human epidermoid carcinoma cells were obtained from ATCC, Rockville, Md., and were routinely passaged in DMEM with 10% FCS, P/S, glutamine (2 mM) and pyruvate (1 mM). SQCC-Y1 human squamous carcinoma cells and non-tumorigenic HPV 18 and SV 40 infected human keratinocytes were kindly donated by Dr. James Rheinwald of Harvard University, Boston, Mass. and Dr. Richard Schlegel of Georgetown University, Washington D.C. respectively. Human cells were cultured in DMEM/Ham's F12 1:1, 10% FCS, P/S and epidermal growth factor 10 ng/ml.
Primary mouse keratinocytes were incubated with MC for 0, 0.5, 1, 4 and 48 hours and were processed as follows.
as §1
Cells were seeded at low density and were treated with MC for 3 days. Cells were then counted and increase in cell number was compared to untreated controls, or cells were processed for cross-linked protein.
Inhibitors were added 30 mins before MC or stsp (FIG. 6). Cross-linked protein was measured by the cornified envelope assay, described in Example 2.

transglutaminase = conditions: Dlugosz and Yuspa, Cancer Res., 51, 4677-4684, 1991; cited from earlier work

SMILES	cross-linked protein production by MC derivatives [1]	potency in cross-linking [1]	other results
COC1C=CC=C(C)C(=O)NC2=CC(=O)C=C(C2=O)C(OC)C(C)CC(OC)C(OC)C(C)C=C(C)C1OC(N)=O (centres unmarked) [herbimycin A]	–	–	ability to induce cross-linking (308 and SQCC-Y1 cells): unable to induce cross-linking
COC(=O)c1cc2ccc(O)c(O)c2cn1.Cl [67F-36-A, 7,8-Dihydroxyisoquinoline-3-carboxylic acid methyl ester hydrochloride]	inactive	–	–
O=C(C=Cc1cc(O)c(O)cc1O)OCCc1ccccc1 [67H-98-A, 2,4,5-Trihydroxycinnamic acid β-phenylethyl ester]	active	most potent	cross-linked protein production by MC derivatives ([1]; listed as 67H-98A): clearly exhibit protein cross-linking activity
CN[C@@H]1C[C@H]2O[C@@](C)([C@@H]1OC)n1c3ccccc3c3c4c(c5c6ccccc6n2c5c31)C(=O)NC4 [staurosporine, reference compound]	–	–	cross-linked protein at 4° C. and 37° C. [2]: temperature dependent; transglutaminase activity (literature) (transglutaminase): increases TGase activity
O=C(O)c1cc(N(Cc2ccccc2O)Cc2cc(O)ccc2O)ccc1O [lavendustin A]	–	–	ability to induce cross-linking (308 and SQCC-Y1 cells): unable to induce cross-linking
O=C(/C=C/c1ccc(O)c(O)c1)OCCc1ccccc1 [67H-42-A, Caffeic acid β-phenylethyl ester]	inactive	–	–
O=C(CCc1ccc(O)c(O)c1)OCCc1ccccc1 [67H-69-A, 3-(3,4-Dihydroxyphenyl) propanoic aid β-phenylethyl ester]	active	most potent	cross-linked protein production by MC derivatives ([1]; listed as 67H-69A): clearly exhibit protein cross-linking activity
O=C(C=Cc1cc(O)ccc1O)OCCc1ccccc1 [67H-124-A, 2.5-dihydroxycinnamic acid β-phenylethyl ester]	clearly exhibit protein cross-linking activity	most potent	–
COC(=O)c1ccc2c(O)c(O)ccc2c1 [67G-146-A, 5,6-Dihydroxy-2-naphthoic acid methyl ester]	active	most potent	cross-linked protein production by MC derivatives ([1]; listed as 67G-146A): clearly exhibit protein cross-linking activity
